Results from US20210379056A1, “SUBSTITUTED PYRAZOLE FUSED RING DERIVATIVE, PREPARATION METHOD THEREFOR, AND APPLICATION THEREOF” (Applied Pharmaceutical Science, Inc., priority 2018, published 2021).
Counter-ions that a name gives are not always drawn.

Columns and labels:
Ret wt = biological target: T1, Ret wt (Homo sapiens, UniProt P07949); assay: HTRF kinase activity test, RET wild type; format: biochemical; details: Table 3; read-out: RET Enzyme (wild type) IC50
T1 construct: purchased Invitrogen PV3082
T1 sequence (P07949 29-1114): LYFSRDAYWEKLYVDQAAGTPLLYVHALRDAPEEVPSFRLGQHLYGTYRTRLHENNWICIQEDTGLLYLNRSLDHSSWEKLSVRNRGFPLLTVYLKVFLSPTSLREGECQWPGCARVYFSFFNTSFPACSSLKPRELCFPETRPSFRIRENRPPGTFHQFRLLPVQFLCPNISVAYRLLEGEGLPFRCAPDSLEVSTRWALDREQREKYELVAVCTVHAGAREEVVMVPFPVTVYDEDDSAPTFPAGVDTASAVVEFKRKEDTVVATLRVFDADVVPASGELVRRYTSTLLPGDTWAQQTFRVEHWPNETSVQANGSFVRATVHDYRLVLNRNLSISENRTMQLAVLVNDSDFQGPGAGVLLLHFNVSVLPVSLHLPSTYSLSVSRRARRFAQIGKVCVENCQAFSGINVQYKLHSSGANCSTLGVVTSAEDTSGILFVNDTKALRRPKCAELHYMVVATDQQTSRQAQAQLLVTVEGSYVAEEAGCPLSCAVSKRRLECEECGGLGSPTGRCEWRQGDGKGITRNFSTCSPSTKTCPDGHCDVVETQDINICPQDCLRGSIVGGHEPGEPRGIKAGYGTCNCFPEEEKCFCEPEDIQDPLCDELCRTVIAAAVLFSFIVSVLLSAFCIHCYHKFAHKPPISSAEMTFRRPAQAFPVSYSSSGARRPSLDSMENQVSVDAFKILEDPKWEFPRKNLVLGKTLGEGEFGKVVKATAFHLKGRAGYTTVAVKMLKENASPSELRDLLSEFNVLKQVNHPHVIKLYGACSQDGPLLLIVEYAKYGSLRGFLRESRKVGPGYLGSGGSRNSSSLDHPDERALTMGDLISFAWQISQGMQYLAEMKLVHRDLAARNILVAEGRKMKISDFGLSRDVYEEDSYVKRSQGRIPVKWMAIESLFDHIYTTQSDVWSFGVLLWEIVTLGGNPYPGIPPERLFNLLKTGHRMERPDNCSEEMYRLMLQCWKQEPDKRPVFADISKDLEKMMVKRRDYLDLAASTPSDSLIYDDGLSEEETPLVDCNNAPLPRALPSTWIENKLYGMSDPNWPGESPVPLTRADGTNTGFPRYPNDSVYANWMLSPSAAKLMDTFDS
Method: This test combined peptide substrates and a single proprietary monoclonal antibody with HTRF technology, which was a highly sensitive and stable technology for detecting molecular interactions of proteins. The enzyme phosphorylates the substrate, then the Eu-labeled antibody binds to the phosphorylated substrate, and streptavidin-XL665 binds to all substrates. The TR-FRET signal was generated by the HTRF principle. […] Based on this, the inhibitory effect was evaluated.
(§1) The other compounds were diluted 3-fold gradiently with DMSO from the 10 mM stock solution to a total of 10 concentrations respectively.
(§2) Adding 4 volumes of distilled water to 1 volume of enzyme buffer 5×; 5 mM MgCl2; 1 mM DTT.
(§3) b) centrifuging the compound plate for 1 minute at 1000 g.
(§4) c) sealing the test board.
(§5) f) adding 4 μl of 1× kinase buffer to each well of the test plate, centrifuging the sample plate at 1000 g for 30 seconds, and placing it at room temperature for 10 minutes.
(§6) g) preparing a solution of 5× TK-substrate-biotin ([…]) in kinase buffer and 5×ATP (50 μM) in kinase buffer respectively.
(§7) h) starting the reaction by adding 2 μl STK-substrate-biotin and 2 μl ATP (prepared in the step g).
(§8) i) centrifuging the sample plate for 30 seconds at 1000 g. Sealing the test board and placing it at room temperature for 30 minutes.
(§9) ) centrifuging at 1000 g for 30 seconds and placing it at room temperature for 1 hour.
(§10) The inhibition rate % was calculated as follows:
(§11) Inhibition rate %=[1−(fluorescence signal value of test compound−fluorescence signal value of positive control)/(average ratio of negative control−average ratio of positive control)]*100%
(§12) Ratio: generated from the measured fluorescence signal value
(§13) The average ratio of the positive control is the average ratio of the positive control (200 nM AT13148) in the sample plate;
(§14) The average ratio of negative controls is the average ratio of negative controls (0.1% DMSO) in the sample plate.
(§15) GraphPad 6.0 was used to fit the logarithm of the % inhibition rate and the compound concentration into a nonlinear regression (dose response−variable slope) to calculate the IC50 value.

RET (V804M) = biological target: T2, RET (V804M) (Homo sapiens, UniProt P07949, V804M); assay: HTRF kinase activity test, RET V804M; format: biochemical; details: Table 3; read-out: RET Enzyme (V804M) IC50
T2 construct: purchased Signalchem R02-12GG
T2 sequence (P07949 29-1114 V804M): as the sequence (P07949 29-1114) above, with V776M counted along it
Method: This test combined peptide substrates and a single proprietary monoclonal antibody with HTRF technology, which was a highly sensitive and stable technology for detecting molecular interactions of proteins. The enzyme phosphorylates the substrate, then the Eu-labeled antibody binds to the phosphorylated substrate, and streptavidin-XL665 binds to all substrates. The TR-FRET signal was generated by the HTRF principle. Once the inhibitor (test compound) was added, a weaker TR-FRET signal is obtained. Based on this, the inhibitory effect was evaluated.
as §1, §2
a) Transferring 10 nl of the compound dilution (prepared in 5.2) to each well of the test plate (784075, Greiner);
as §3, §4
d) preparing 5×Ret wt (0.2 ng/μl) and 5×Ret V804L (0.5 ng/μl)/5×Ret V804M (0.5 ng/μl) in 1× kinase buffer respectively.
e) adding 2 μl of 5×Ret wt or 2 μl of Ret V804L/RET V804M to a 384-well test plate (784075, Greiner).
as §5, §6, §7, §8
j) preparing 4×Sa-XL 665 (250 nM) in HTRF detection buffer.
k) adding 5 μl of Sa-XL 665 and 5 μl of TK-antibody-Cryptate (prepared in the step i) to each well of the test plate.
as §9
m) reading the fluorescence signal values at 615 nm (Cryptate) and 665 nm (XL665) on the Envision 2104 plate reader.
Calculating the ratio of each hole (665 nm/615 nm).
as §10, §11, §12, §13, §14, §15

TT Cell = assay: Cell inhibitory activity test (CCK8); format: cell-based; details: Homo sapiens, TT, Table 3, 72 hours incubation
Method: Cell Inhibitory Activity Test
1. preparing 90 μl of cell suspension in a 96-well plate with 4000 cells/well. Pre-incubating the culture plate in an incubator for 24 hours (37° C., 5% CO2).
2. adding 10 μl of test compounds of different concentrations to each well of cells, and each compound has multiple wells.
3. incubating the culture plate in the incubator for 72 hours.
4. adding 10 μl of CCK8 solution to each well (be careful not to generate bubbles in the well, otherwise they would affect the reading of the OD value).
5. incubating the culture plate in the incubator for 1-2 hours.
6. measuring the absorbance at 450 nm with a microplate reader.
7. according to the compound concentration and absorbance value, GraphpadPrism software was used to calculate the IC50 of each compound.

[1] = system: RET wild-type, mutant and/or fusion-type; assay: Overall statement on RET inhibitory activity (summary of Table 3); details: statement in words summarising Table 3
From the text: As shown in the above table, the example compounds of the present disclosure have improved inhibitory activity against RET wild-type, mutant and/or fusion-type.

SMILES	IC50 (Ret wt) [nM]	IC50 (RET (V804M)) [nM]	IC50 (TT Cell) [nM]	inhibitory activity against RET wild-type, mutant and/or fusion-type [1]
COc1ccc(CN2C3CC2CN(c2ccc(-c4cc(OCCF)cn5nc(N)c(C#N)c45)cn2)C3)cn1 [APS119, 2-amino-6-(2-fluoroethoxy)-4-(6-(6-((6-methoxypyridin-3-yl)methyl)-3,6-diazabicyclo[3.1.1]heptan-3-yl)pyridin-3-yl)pyrazolo[1,5-a]pyridine-3-carbonitrile]	< 1	< 1	6.6	excellent activity
COc1ccc(CN2C3CC2CN(c2ccc(-c4cc(OCC(F)F)cn5nc(N)c(C#N)c45)cn2)C3)cn1 [APS114, 2-amino-6-(2,2-difluoroethoxy)-4-(6-(6-((6-methoxypyridin-3-yl)methyl)-3,6-diazabicyclo[3.1.1]heptan-3-yl)pyridin-3-yl)pyrazolo[1,5-a]pyridine-3-carbonitrile]	2	< 1	–	excellent activity
COc1ccc(CN2C3CC2CN(c2ccc(-c4cc(OCC(C)(C)O)cn5nc(F)c(C#N)c45)cn2)C3)cn1 [APS090]	54	486	31.4	–
CCOc1cc(-c2ccc(N3CC4CC(C3)N4Cc3cnc(OC)c(Cl)c3)nc2)c2c(C#N)c(N)nn2c1 [APS105]	< 1	< 1	28.1	excellent activity
CCOCCOc1cc(-c2ccc(N3CC4CC(C3)N4Cc3ccc(OC)nc3)nc2)c2c(C#N)c(N)nn2c1 [APS109, 2-amino-6-(2-ethoxyethoxy)-4-(6-(6-((6-methoxypyridin-3-yl)methyl)-3,6-diazabicyclo [3.1.1]heptan-3-yl)pyridin-3-yl)pyrazolo[1,5-a]pyridine-3-carbonitrile]	< 1	< 1	57.9	excellent activity
COc1ccc(CN2C3CC2CN(c2cnc(-c4cc(OC[C@@H]5CNCCO5)cn5nc(N)c(C#N)c45)cn2)C3)cn1 [APS087, 2-amino-4-(5-(6-((6-methoxypyridin-3-yl)methyl)-3,6-diazabicyclo[3.1.1]heptan-3-yl)pyrazin-2-yl)-6-(((S)-morpholin-2-yl)methoxy)pyrazolo[1,5-a]pyridine-3-carbonitrile trifluoroacetate]	< 1	< 1	< 1	excellent activity
COCCOc1cc(-c2ccc(N3CC4CC(C3)N4Cc3cnc(OC)c(Cl)c3)nc2)c2c(C#N)c(N)nn2c1 [APS108, 2-amino-4-(6-(6-((5-chloro-6-methoxypyridin-3-yl)methyl)-3,6-diazabicyclo[3.1.1]heptane-3-yl)pyridin-3-yl)-6-(2-methoxyethoxy)pyrazolo[1,5-a]pyridine-3-carbonitrile]	< 1	< 1	10.7	excellent activity
CCOc1cc(-c2ccc(N3CC4CC(C3)N4Cc3ccc(OC)nc3)nc2)c2c(C#N)c(N)nn2c1 [APS095]	< 1	< 1	38.6	excellent activity
COc1ccc(CN2C3CC2CN(c2cnc(-c4cc(OC[C@@H]5CN(C)CCO5)cn5nc(F)c(C#N)c45)cn2)C3)cn1 [APS104, 2-fluoro-4-(5-(6-((6-methoxypyridin-3-yl)methyl)-3,6-diazabicyclo[3.1.1]heptan-3-yl)pyrazin-2-yl)-6-(((S)-4-methylmorpholin-2-yl)methoxy)pyrazolo[1,5-a]pyridine-3-carbonitrile]	6.9	14	–	excellent activity
COc1ccc(CN2C3CC2CN(c2ccc(-c4cc(OCC(C)(C)O)cn5nc(N)c(C#N)c45)cn2)C3)cn1 [APS089]	1.8	1.6	18.6	excellent activity
COCCOc1cc(-c2ccc(N3CC4CC(C3)N4Cc3ccc(OC)nc3)nc2)c2c(C#N)c(N)nn2c1 [APS097, 2-amino-6-(2-methoxyethoxy)-4-(6-(6-((6-methoxypyridin-3-yl)methyl)-3,6-diazabicyclo[3.1.1]heptan-3-yl)pyridin-3-yl)pyrazolo[1,5-a]pyridine-3-carbonitrile]	< 1	< 1	75.5	excellent activity
COc1ccc(CN2C3CC2CN(c2cnc(-c4cc(OC[C@@H]5CN(C)CCO5)cn5nc(N)c(C#N)c45)cn2)C3)cn1 [APS107, 2-amino-4-(5-(6-((6-methoxypyridin-3-yl)methyl)-3,6-diazabicyclo[3.1.1]heptan-3-yl)pyrazin-2-yl)-6-(((S)-4-methylmorpholin-2-yl)methoxy)pyrazolo[1,5-a]pyridine-3-carbonitrile]	< 1	< 1	16.3	excellent activity
COc1ccc(CN2C3CC2CN(c2ccc(-c4cc(OCC(C)(C)O)cn5nc(NCCO)c(C#N)c45)cn2)C3)cn1 [APS094, 6-(2-Hydroxy-2-methylpropoxy)-2-((2-2-hydroxyethyl)amino)-4-(6-(6-((6-methoxypyridine-3-yl)methyl)-3,6-diazabicyclo[3.1.1]heptan-3-yl)pyridin-3-yl)pyrazolo[1,5-a]pyridine-3-carbonitrile]	942	493	–	–
CCOc1cc(-c2cnc(N3CC4CC(C3)N4Cc3ccc(OC)nc3)cn2)c2c(C#N)c(N)nn2c1 [APS092, 2-amino-6-ethoxy-4-(5-(6-((6-methoxypyridin-3-yl)methyl)-3,6-diazabicyclo[3.1.1]heptane-3-yl)pyrazin-2-yl)pyrazolo[1,5-a]pyridine-3-carbonitrile]	4.3	2.7	60	excellent activity
COc1ccc(CN2C3CC2CN(c2ccc(-c4cc(OCCOC5CC5)cn5nc(N)c(C#N)c45)cn2)C3)cn1 [APS113, 2-amino-6-(2-cyclopropoxyethoxy)-4-(6-(6-((6-methoxypyridin-3-yl)methyl)-3,6-diazabicyclo[3.1.1]heptan-3-yl)pyridin-3-yl)pyrazolo[1,5-a]pyridine-3-carbonitrile]	< 1	< 1	83.5	excellent activity
COc1ccc(CN2C3CC2CN(c2ccc(-c4cc(OC(F)F)cn5nc(N)c(C#N)c45)cn2)C3)cn1 [APS115, 2-amino-6-(difluoromethoxy)-4-(6-(6-((6-methoxypyridin-3-yl)methyl)-3,6-diazabicyclo[3.1.1]heptan-3-yl)pyridin-3-yl)pyrazolo[1,5-a]pyridine-3-carbonitrile]	45.9	8.8	–	–
